From patent publication US10227357B2, “Compounds and methods for kinase modulation, and indications therefor” (Plexxikon Inc., priority 2012, dated 2019)

Molecular target: T1, c-kit kinase (Homo sapiens, UniProt P10721)
T1 construct: The c-kit (or kinase domain thereof) is an active kinase in AlphaScreen; poly-Histidine tag (in-house protein only) (cleaved yes); host or cells: E. coli BL21(DE3)RIL, co-expressed with PTP1B
Assay: c-Kit biochemical assay, AlphaScreen, 10 μM ATP
Conditions: c-kit biochemical inhibitory activity; read-out: Biochemical activity (IC50 μM) Kit
Description: IC50 values are determined with respect to inhibition of c-Kit kinase activity, where inhibition of phosphorylation of a peptide substrate is measured as a function of compound concentration. Compounds to be tested were dissolved in DMSO to a concentration of 20 mM. These were diluted 30 μl into 120 μl of DMSO (4 mM) and 1 μl was added to an assay plate. These were then serially diluted 1:3 (50 μl to 100 μl DMSO) for a total of 8 points. Plates were prepared such that each kinase reaction is 20 μl in 1× kinase buffer (50 mM HEPES, pH 7.2, 5 mM MgCl2, 5 mM MnCl2, 0.01% NP-40, 0.2% BSA), 5% DMSO and 10 μM ATP. […] C-kit kinase was at 0.1 ng per sample. After incubation of the kinase reaction for 1 hour at room temperature, 5 μl of donor beads (Streptavidin coated beads (Perkin Elmer Life Science) final concentration 1 μg/ml) in stop buffer (50 mM EDTA in 1× kinase buffer) was added, the sample was mixed and incubated for 20 minutes at room temperature before adding 5 μl of acceptor beads (PY20 coated beads (Perkin Elmer Life Science) final concentration 1 μg/ml) in stop buffer. The samples were incubated for 60 minutes at room temperature and the signal per well was read on AlphaQuest reader. […] The signal vs. compound concentration was used to determine the IC50.
Complementary DNA cloned from various human tissues were purchased from Invitrogen, and these were used as substrates in the PCR reactions. Specific custom synthetic oligonucleotide primers were designed to initiate the PCR product, and also to provide the appropriate restriction enzyme cleavage sites for ligation with the plasmids. The entire sequence encoding the enzyme was made through a gene synthesis procedure, using custom synthetic oligonucleotides covering the entire coding sequence (Invitrogen, see below).
The plasmid used for ligation with the kinase-encoding inserts was derivative of pET (Novagen) for expression using E. coli. The Kit kinase was engineered to include a Histidine tag for purification using metal affinity chromatography. The kinase-encoding plasmid was engineered as bicistronic mRNA to co-express a second protein that modifies the kinase protein during its expression in the host cell. Protein tyrosine phosphatase 1B (PTP), was co-expressed for dephosphorylation of the phospho-Tyrosines.
For protein expression, the plasmid containing the Kit gene was transformed into E. coli strains BL21(DE3)RIL and transformants selected for growth on LB agar plates containing appropriate antibiotics. Single colonies were grown overnight at 37° C. in 200 ml TB (Terrific broth) media. 16×1 L of fresh TB media in 2.8 L flasks were inoculated with 10 ml of overnight culture and grown with constant shaking at 37° C. Once cultures reached an absorbance of 1.0 at 600 nm, IPTG was added and cultures were allowed to grow for a further 12 to 18 hrs at temperatures ranging from 12-30° C. Cells were harvested by centrifugation and pellets frozen at […] until ready for lysis.
For protein Purification; frozen E. coli cell pellets were resuspended in lysis buffer and lysed using standard mechanical methods. Protein was purified via poly-Histidine tags using immobilized metal affinity purification IMAC. The Kit kinase was purified using a 3 step purification process utilizing; IMAC, size exclusion chromatography and ion exchange chromatography. The poly-Histidine tag was removed using Thrombin (Calbiochem).

T1 sequence (P10721 26-976): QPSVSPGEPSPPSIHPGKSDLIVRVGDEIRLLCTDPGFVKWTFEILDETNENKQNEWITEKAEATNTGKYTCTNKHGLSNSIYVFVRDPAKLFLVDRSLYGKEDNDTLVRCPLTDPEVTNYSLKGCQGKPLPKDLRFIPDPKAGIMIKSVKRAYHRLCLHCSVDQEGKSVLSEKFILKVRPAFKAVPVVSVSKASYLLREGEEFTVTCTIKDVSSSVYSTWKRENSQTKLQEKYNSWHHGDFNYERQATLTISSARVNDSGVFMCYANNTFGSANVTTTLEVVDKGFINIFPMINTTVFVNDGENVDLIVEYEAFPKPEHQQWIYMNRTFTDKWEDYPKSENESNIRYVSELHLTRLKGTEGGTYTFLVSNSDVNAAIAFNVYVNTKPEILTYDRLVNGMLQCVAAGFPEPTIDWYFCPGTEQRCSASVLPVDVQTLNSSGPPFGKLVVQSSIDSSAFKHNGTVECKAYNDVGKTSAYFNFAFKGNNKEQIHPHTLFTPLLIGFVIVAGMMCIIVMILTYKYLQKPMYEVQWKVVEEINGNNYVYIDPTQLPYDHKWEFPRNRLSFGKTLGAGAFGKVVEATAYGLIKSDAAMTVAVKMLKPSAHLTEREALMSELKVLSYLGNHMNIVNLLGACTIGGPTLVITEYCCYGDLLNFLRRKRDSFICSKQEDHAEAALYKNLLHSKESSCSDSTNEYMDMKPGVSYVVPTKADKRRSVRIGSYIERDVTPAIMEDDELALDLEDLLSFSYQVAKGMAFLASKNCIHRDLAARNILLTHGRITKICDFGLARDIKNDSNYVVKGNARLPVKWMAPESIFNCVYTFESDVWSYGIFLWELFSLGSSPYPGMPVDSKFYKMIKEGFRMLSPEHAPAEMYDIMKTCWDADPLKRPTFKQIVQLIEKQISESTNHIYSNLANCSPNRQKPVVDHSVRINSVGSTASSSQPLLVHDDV

Row | Compound | IC50 [µM]
1 | O=C(NCc1ccc(F)cc1)N1CCN(c2ncnc3[nH]c(CC4CC4)cc23)CC1 [P-0210, 4-[6-(cyclopropylmethyl)-7H-pyrrolo[2,3-d]pyrimidin-4-yl]-N-[(4-fluorophenyl)methyl]piperazine-1-carboxamide] | 10 to 200
2 | COc1cc(NC(=O)N2CCN(c3ncnc4[nH]cc(-c5ccccc5)c34)CC2)cc(OC)c1 [P-0216, N-(3,5-dimethoxyphenyl)-4-(5-phenyl-7H-pyrrolo[2,3-d]pyrimidin-4-yl)piperazine-1-carboxamide] | 10 to 200
3 | COc1ccc(NC(=O)N2CCN(c3ncnc4[nH]c(-c5ccccc5)cc34)CC2)cc1 [P-0240, N-(4-methoxyphenyl)-4-(6-phenyl-7H-pyrrolo[2,3-d]pyrimidin-4-yl)piperazine-1-carboxamide] | 10 to 200
4 | COc1ccc(NC(=O)N2CCN(c3ncnc4[nH]c(I)cc34)CC2)cc1 [P-0244, 4-(6-iodo-7H-pyrrolo[2,3-d]pyrimidin-4-yl)-N-(4-methoxyphenyl)piperazine-1-carboxamide] | 1 to 10
5 | COc1cc2ncnc(-c3ccc(N)c(F)c3)c2cc1OC [P-0276, 4-(6,7-dimethoxyquinazolin-4-yl)-2-fluoro-aniline] | 1 to 10
6 | COc1cc2ncnc(-c3ccc(S(=O)(=O)NC4CC4)cc3)c2cc1OC [P-0277, N-cyclopropyl-4-(6,7-dimethoxyquinazolin-4-yl)benzenesulfonamide] | 10 to 200
7 | COc1cc2ncnc(-c3ccc(S(N)(=O)=O)cc3)c2cc1OC [P-0278, 4-(6,7-dimethoxyquinazolin-4-yl)benzenesulfonamide] | 10 to 200
8 | COc1cc2ncnc(-c3cccc(NS(=O)(=O)C4CC4)c3)c2cc1OC [P-0279, N-[3-(6,7-dimethoxyquinazolin-4-yl)phenyl]cyclopropanesulfonamide] | 10 to 200
9 | COc1cc2ncnc(-c3ccc(NS(=O)(=O)C4CC4)cc3)c2cc1OC [P-0280, N-[4-(6,7-dimethoxyquinazolin-4-yl)phenyl]cyclopropanesulfonamide] | 10 to 200
10 | O=S(=O)(Nc1ccc(-c2ncnc3[nH]c(C(F)F)cc23)c(F)c1)c1ccc(Cl)cc1 [P-0310, 4-chloro-N-[4-[6-(difluoromethyl)-7H-pyrrolo[2,3-d]pyrimidin-4-yl]-3-fluoro-phenyl]benzenesulfonamide] | 1 to 10
11 | Cc1cc2c(-c3ccc(NS(=O)(=O)c4ccccc4F)c(F)c3)ncnc2[nH]1 [P-0348, 2-fluoro-N-[2-fluoro-4-(6-methyl-7H-pyrrolo[2,3-d]pyrimidin-4-yl)phenyl]benzenesulfonamide] | 0.0001 to 1
12 | CS(=O)(=O)Nc1cc(F)c(-c2ncnc3[nH]c(-c4ccc(F)cc4)cc23)cc1F [P-0356, N-[2,5-difluoro-4-[6-(4-fluorophenyl)-7H-pyrrolo[2,3-d]pyrimidin-4-yl]phenyl]methanesulfonamide] | 0.0001 to 1
13 | Fc1ccc(-c2cc3c(-c4cccnc4C(F)(F)F)ncnc3[nH]2)cc1 [P-0374, 6-(4-fluorophenyl)-4-[2-(trifluoromethyl)-3-pyridyl]-7H-pyrrolo[2,3-d]pyrimidine] | 10 to 200
14 | Cc1cc2c(-c3ccc(NS(=O)(=O)C4CC4)cc3)ncnc2[nH]1 [P-0377, N-[4-(6-methyl-7H-pyrrolo[2,3-d]pyrimidin-4-yl)phenyl]cyclopropanesulfonamide] | 10 to 200
15 | CS(=O)(=O)c1ccc(-c2ncnc3[nH]c(-c4ccc(F)cc4)cc23)cc1 [P-0391, 6-(4-fluorophenyl)-4-(4-methylsulfonylphenyl)-7H-pyrrolo[2,3-d]pyrimidine] | 1 to 10
16 | Fc1ccc(-c2cc3c(-c4ccncc4)ncnc3[nH]2)cc1 [P-0392, 6-(4-fluorophenyl)-4-(4-pyridyl)-7H-pyrrolo[2,3-d]pyrimidine] | 0.0001 to 1

Row | Compound | IC50 [µM]
17 | Fc1ccc(-c2cc3c(-c4ccc(F)cc4)ncnc3[nH]2)cc1 [P-0395, 4,6-bis(4-fluorophenyl)-7H-pyrrolo[2,3-d]pyrimidine] | 0.0001 to 1
18 | CCCCNS(=O)(=O)c1ccc(-c2ncnc3[nH]c(-c4ccc(F)cc4)cc23)cc1 [P-0421, N-butyl-4-[6-(4-fluorophenyl)-7H-pyrrolo[2,3-d]pyrimidin-4-yl]benzenesulfonamide] | 10 to 200
19 | Cc1ccc(-c2cc3c(N4CCC(NS(=O)(=O)c5ccc(OC(F)(F)F)cc5)CC4)ncnc3[nH]2)cn1 [P-0459, N-[1-[6-(6-methyl-3-pyridyl)-7H-pyrrolo[2,3-d]pyrimidin-4-yl]-4-piperidyl]-4-(trifluoromethoxy)benzenesulfonamide] | 10 to 200
20 | N#Cc1ccc(-c2cc3c(N4CCC(NS(=O)(=O)c5ccc(OC(F)(F)F)cc5)CC4)ncnc3[nH]2)cc1 [P-0464, N-[1-[6-(4-cyanophenyl)-7H-pyrrolo[2,3-d]pyrimidin-4-yl]-4-piperidyl]-4-(trifluoromethoxy)benzenesulfonamide] | 10 to 200
21 | CS(=O)(=O)NC1CCN(c2ncnc3[nH]c(C#CC4CC4)cc23)CC1 [P-0472, N-[1-[6-(2-cyclopropylethynyl)-7H-pyrrolo[2,3-d]pyrimidin-4-yl]-4-piperidyl]methanesulfonamide] | 10 to 200
22 | O=C1CCCN1c1ccc(S(=O)(=O)NC2CCN(c3ncnc4[nH]c(-c5ccc(Cl)cc5)cc34)CC2)cc1 [P-0473, N-[1-[6-(4-chlorophenyl)-7H-pyrrolo[2,3-d]pyrimidin-4-yl]-4-piperidyl]-4-(2-oxopyrrolidin-1-yl)benzenesulfonamide] | 10 to 200
23 | CN(C)c1ccc(NC(=O)NC2CCN(c3ncnc4[nH]ccc34)CC2)cc1 [P-0506, 1-(4-dimethylaminophenyl)-3-[1-(7H-pyrrolo[2,3-d]pyrimidin-4-yl)-4-piperidyl]urea] | 10 to 200
24 | O=C(Nc1ccc(Cl)cc1)NC1CCN(c2ncnc3[nH]ccc23)CC1 [P-0519, 1-(4-chlorophenyl)-3-[1-(7H-pyrrolo[2,3-d]pyrimidin-4-yl)-4-piperidyl]urea] | 10 to 200
25 | O=C(NC(=O)c1ccccc1)NC1CCN(c2ncnc3[nH]ccc23)CC1 [P-0522, N-[[1-(7H-pyrrolo[2,3-d]pyrimidin-4-yl)-4-piperidyl]carbamoyl]benzamide] | 10 to 200
26 | O=C(NC1CCCC1)NC1CCN(c2ncnc3[nH]ccc23)CC1 [P-0526, 1-cyclopentyl-3-[1-(7H-pyrrolo[2,3-d]pyrimidin-4-yl)-4-piperidyl]urea] | 10 to 200
27 | CCCC(=O)NC1CCN(c2ncnc3[nH]ccc23)CC1 [P-0527, N-[1-(7H-pyrrolo[2,3-d]pyrimidin-4-yl)-4-piperidyl]butanamide] | 10 to 200
28 | O=C(NC1CCN(c2ncnc3[nH]ccc23)CC1)C1CCCCC1 [P-0528, N-[1-(7H-pyrrolo[2,3-d]pyrimidin-4-yl)-4-piperidyl]cyclohexanecarboxamide] | 10 to 200
29 | O=C(NC1CCN(c2ncnc3[nH]ccc23)CC1)C1CCCC1 [P-0529, N-[1-(7H-pyrrolo[2,3-d]pyrimidin-4-yl)-4-piperidyl]cyclopentanecarboxamide] | 10 to 200
30 | CCc1ccc(C(=O)NC2CCN(c3ncnc4[nH]ccc34)CC2)cc1 [P-0530, 4-ethyl-N-[1-(7H-pyrrolo[2,3-d]pyrimidin-4-yl)-4-piperidyl]benzamide] | 10 to 200
31 | O=C(NC1CCN(c2ncnc3[nH]ccc23)CC1)c1ccccc1 [P-0531, N-[1-(7H-pyrrolo[2,3-d]pyrimidin-4-yl)-4-piperidyl]benzamide] | 10 to 200
32 | CCCS(=O)(=O)NC1CCN(c2ncnc3[nH]ccc23)CC1 [P-0532, N-[1-(7H-pyrrolo[2,3-d]pyrimidin-4-yl)-4-piperidyl]propane-1-sulfonamide] | 10 to 200
